Assay results reported in US8906852B2 (MethylGene Inc., priority 2010, dated 2014).

What follows are compounds tested against T1, VEGFR/KDR (Homo sapiens, UniProt P35968) (assay: VEGFR/KDR kinase inhibition, DELFIA assay). Settings: ATP 0.6 uM (2x Km), enzyme 5 nM.
T1 construct: made in house; host or cells: Sf9 cells (Spodoptera frugiperda), baculovirus
Type: biochemical
Procedure, shortened: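 Enzyme (5 nM) pre-incubated 4 min on ice with inhibitor and Mg-ATP (0.6 uM, 2× Km), then reacted 10-30 min at 30° C on immobilized poly(Glu4,Tyr). EDTA-quenched phosphotyrosine detected with Europium-labeled antibody by time-resolved fluorescence; IC50 from concentration series.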

T1 sequence (P35968 806-1356): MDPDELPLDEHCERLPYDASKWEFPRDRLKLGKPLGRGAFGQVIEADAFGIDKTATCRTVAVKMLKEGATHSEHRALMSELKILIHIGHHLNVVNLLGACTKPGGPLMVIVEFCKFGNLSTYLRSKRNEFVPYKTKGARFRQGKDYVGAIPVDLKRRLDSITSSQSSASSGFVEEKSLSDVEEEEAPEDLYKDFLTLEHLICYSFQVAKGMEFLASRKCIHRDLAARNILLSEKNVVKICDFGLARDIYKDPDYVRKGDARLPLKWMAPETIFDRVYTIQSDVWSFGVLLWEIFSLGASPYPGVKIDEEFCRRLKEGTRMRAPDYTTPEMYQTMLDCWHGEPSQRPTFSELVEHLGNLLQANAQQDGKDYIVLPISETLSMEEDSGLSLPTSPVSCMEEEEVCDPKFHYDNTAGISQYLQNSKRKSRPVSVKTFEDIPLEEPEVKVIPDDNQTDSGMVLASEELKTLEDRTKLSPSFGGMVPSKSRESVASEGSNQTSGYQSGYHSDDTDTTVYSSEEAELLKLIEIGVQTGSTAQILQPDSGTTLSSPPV

| IC50 [nM] | Compound |
| --- | --- |
| < 50 | O=C(Nc1ccc(Oc2ccnc3cc(-c4ccc(CN5CCN(C(=O)CCO)CC5)cn4)sc23)c(F)c1)NC1CC1 [Compound 545] |
| < 50 | O=C(O)CC[C@@H](O)C(=O)N1CCN(Cc2ccc(-c3cc4nccc(Oc5ccc(NC(=O)NC6CC6)cc5F)c4s3)nc2)CC1 [Compound 546] |
| < 50 | CN(C)C/C=C/C(=O)N1CCN(Cc2ccc(-c3cc4nccc(Oc5ccc(NC(=O)NC6CC6)cc5F)c4s3)nc2)CC1 [Compound 547, (E)-1-cyclopropyl-3-(4-(2-(5-((4-(4-(dimethylamino)but-2-enoyl)piperazin-1-yl)methyl)pyridin-2-yl)thieno[3,2-b]pyridin-7-yloxy)-3-fluorophenyl)urea] |
| ≥ 250 | CC1=C(/C=C/C(C)=C/C=C/C(C)=C/C(=O)N2CCN(Cc3ccc(-c4cc5nccc(Oc6ccc(NC(=O)NC7CC7)cc6F)c5s4)nc3)CC2)C(C)(C)CCC1 [Compound 548, 1-cyclopropyl-3-(4-(2-(5-((4-((2E,4E,6E,8E)-3,7-dimethyl-9-(2,6,6-trimethylcyclohex-1-enyl)nona-2,4,6,8-tetraenoyl)piperazin-1-yl)methyl)pyridin-2-yl)thieno[3,2-b]pyridin-7-yloxy)-3-fluorophenyl)urea] |
| < 50 | CN(C)CCNCC(=O)N1CCN(Cc2ccc(-c3cc4nccc(Oc5ccc(NC(=O)NC6CC6)cc5F)c4s3)nc2)CC1 [Compound 549, 1-cyclopropyl-3-(4-(2-(5-((4-(2-(2-(dimethylamino)ethylamino)acetyl)piperazin-1-yl)methyl)pyridin-2-yl)thieno[3,2-b]pyridin-7-yloxy)-3-fluorophenyl)urea] |
| < 50 | O=C(Nc1ccc(Oc2ccnc3cc(-c4ccc(C(=O)N5CCNCC5)cn4)sc23)c(F)c1)NC1CC1 [Compound 550] |
| < 50 | CCNC(=O)N1CCN(Cc2ccc(-c3cc4nccc(Oc5ccc(NC(=O)NC6CC6)cc5F)c4s3)nc2)CC1 [Compound 551] |
| < 50 | CNC(=O)N1CCN(Cc2ccc(-c3cc4nccc(Oc5ccc(NC(=O)NC6CC6)cc5F)c4s3)nc2)CC1 [Compound 552] |
| < 50 | CCNC(=O)N1CCN(Cc2ccc(-c3cc4nccc(Oc5ccc(NC(=O)NC6CC6)cc5F)c4s3)nc2)C[C@@H]1C [Compound 556] |
| < 50 | CCNC(=O)N1CCN(C(=O)c2ccc(-c3cc4nccc(Oc5ccc(NC(=O)NC6CC6)cc5F)c4s3)nc2)CC1 [Compound 557] |
| < 50 | O=C(O)CNC(=O)N1CCN(Cc2ccc(-c3cc4nccc(Oc5ccc(NC(=O)NC6CC6)cc5F)c4s3)nc2)CC1 [Compound 558] |
| < 50 | O=C(O)CCNC(=O)N1CCN(Cc2ccc(-c3cc4nccc(Oc5ccc(NC(=O)NC6CC6)cc5F)c4s3)nc2)CC1 [Compound 559] |
| < 50 | CC(O)CN1CCN(Cc2ccc(-c3cc4nccc(Oc5ccc(NC(=O)NC6CC6)cc5F)c4s3)nc2)CC1 (centres unmarked) [Compound 562] |
| < 50 | CC(C)(O)CN1CCN(Cc2ccc(-c3cc4nccc(Oc5ccc(NC(=O)NC6CC6)cc5F)c4s3)nc2)CC1 [Compound 570] |
| < 50 | C[C@H](CN1CCN(Cc2ccc(-c3cc4nccc(Oc5ccc(NC(=O)NC6CC6)cc5F)c4s3)nc2)CC1)C(=O)O [Compound 574] |
| < 50 | CC(C)(CN1CCN(Cc2ccc(-c3cc4nccc(Oc5ccc(NC(=O)NC6CC6)cc5F)c4s3)nc2)CC1)C(=O)O [Compound 575] |
| < 50 | CC(C)(CN1CCN(C(=O)c2ccc(-c3cc4nccc(Oc5ccc(NC(=O)NC6CC6)cc5F)c4s3)nc2)CC1)C(=O)O [Compound 576] |
| < 50 | COC(=O)CCN1CCN(C(=O)c2ccc(-c3cc4nccc(Oc5ccc(NC(=O)NC6CC6)cc5F)c4s3)nc2)CC1 [Compound 580] |
| < 50 | O=C(Nc1ccc(Oc2ccnc3cc(-c4ccc(C(=O)N5CCN(CCO)CC5)cn4)sc23)c(F)c1)NC1CC1 [Compound 581, 1-cyclopropyl-3-(3-fluoro-4-(2-(5-(4-(2-hydroxyethyl)piperazine-1-carbonyl)pyridin-2-yl)thieno[3,2-b]pyridin-7-yloxy)phenyl)urea] |
| < 50 | C[C@H]1CN(Cc2ccc(-c3cc4nccc(Oc5ccc(NC(=O)NC6CC6)cc5F)c4s3)nc2)CCN1CCO [Compound 582, (S)-1-cyclopropyl-3-(3-fluoro-4-(2-(5-((4-(2-hydroxyethyl)-3-methylpiperazin-1-yl)methyl)pyridin-2-yl)thieno[3,2-b]pyridin-7-yloxy)phenyl)urea] |
| < 50 | C[C@@H]1CN(Cc2ccc(-c3cc4nccc(Oc5ccc(NC(=O)NC6CC6)cc5F)c4s3)nc2)C[C@H](C)N1CCO [Compound 583] |
| < 50 | O=C(Nc1ccc(Oc2ccnc3cc(-c4ccc(C(=O)N5CCN(C(=O)CO)CC5)cn4)sc23)c(F)c1)NC1CC1 [Compound 584] |
| < 50 | COCCOCCOCC(=O)N1CCN(Cc2ccc(-c3cc4nccc(Oc5ccc(NC(=O)NC6CC6)cc5F)c4s3)nc2)CC1 [Compound 588, 1-Cyclopropyl-3-(3-fluoro-4-(2-(5-((4-(2-(2-(2-methoxyethoxy)ethoxy)acetyl)piperazin-1-yl)methyl)pyridin-2-yl)thieno[3,2-b]pyridin-7-yloxy)phenyl)urea] |
| < 50 | COCCOCC(=O)N1CCN(Cc2ccc(-c3cc4nccc(Oc5ccc(NC(=O)NC6CC6)cc5F)c4s3)nc2)CC1 [Compound 589] |
| < 50 | COCCOCCOCCNC(=O)N1CCN(Cc2ccc(-c3cc4nccc(Oc5ccc(NC(=O)NC6CC6)cc5F)c4s3)nc2)CC1 [Compound 596, 4-((6-(7-(4-(3-Cyclopropylureido)-2-fluorophenoxy)thieno[3,2-b]pyridin-2-yl)pyridin-3-yl)methyl)-N-(2-(2-(2-methoxyethoxy)ethoxy)ethyl)piperazine-1-carboxamide] |
| < 50 | O=C(Nc1ccc(Oc2ccnc3cc(-c4ccc(CN5CCC(O)CC5)cn4)sc23)c(F)c1)NC1CC1 [Compound 599, 1-Cyclopropyl-3-(3-fluoro-4-(2-(5-((4-hydroxypiperidin-1-yl)methyl)pyridin-2-yl)thieno[3,2-b]pyridin-7-yloxy)phenyl)urea] |
| < 50 | CC(=O)N(Cc1ccc(-c2cc3nccc(Oc4ccc(NC(=O)NC5CC5)cc4F)c3s2)nc1)C1CCNCC1 [Compound 609, N-((6-(7-(4-(3-Cyclopropylureido)-2-fluorophenoxy)thieno[3,2-b]pyridin-2-yl)pyridin-3-yl)methyl)-N-(piperidin-4-yl)acetamide] |
| < 50 | COCCNCCn1cnc(-c2cc3nccc(Oc4ccc(NC(=O)NC5CC5)cc4F)c3s2)c1 [compound 253] |
| < 50 | N-(4-(7-(4-(3-cyclopropylureido)-2-fluorophenoxy)thieno[3,2-b]pyridin-2-yl)benzyl)-2-(2-methoxyethoxy)-N-(2-methoxyethyl)acetamide [Compound 115] |
